pEC50, pIC50: −log10 of the molar value.
Experiments:
[1] = biological target: Dual specificity tyrosine-phosphorylation-regulated kinase 1A (Homo sapiens, UniProt Q13627); assay: Inhibition of GST-fused human recombinant DYRK1A expressed in Escherichia coli using GRSRSRSRSRSR peptide as substrate incubated for 30 mins in presence of ATP by scintillation counting method
Cannabinoid receptor 1 = Cannabinoid receptor 1 (Homo sapiens, UniProt P21554); assay: Antagonist activity at CP-55940-activated CB1 receptor (unknown origin) at 10 uM by beta-arrestin assay relative to control; assay type: functional; set-up: scale not given: the % may be the effect or the level left
Sequence of Cannabinoid receptor 1 (P21554 whole entry): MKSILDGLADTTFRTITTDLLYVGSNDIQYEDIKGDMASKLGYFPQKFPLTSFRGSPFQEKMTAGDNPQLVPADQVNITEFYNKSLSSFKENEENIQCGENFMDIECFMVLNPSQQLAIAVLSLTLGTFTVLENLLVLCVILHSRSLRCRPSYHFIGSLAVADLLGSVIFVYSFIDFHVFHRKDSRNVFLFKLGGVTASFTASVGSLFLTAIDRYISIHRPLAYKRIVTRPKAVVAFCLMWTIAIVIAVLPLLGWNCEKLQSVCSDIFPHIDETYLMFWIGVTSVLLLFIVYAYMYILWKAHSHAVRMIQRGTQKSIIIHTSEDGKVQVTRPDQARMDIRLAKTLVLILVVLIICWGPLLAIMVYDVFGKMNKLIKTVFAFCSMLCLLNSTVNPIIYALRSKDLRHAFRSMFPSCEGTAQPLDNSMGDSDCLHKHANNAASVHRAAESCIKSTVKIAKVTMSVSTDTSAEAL

[2] = Neurotoxicity against mouse HT-22 cells assessed as cell survival at 20 uM treated for 24 hrs by MTS assay; assay type: toxicity, cell-based; conditions: ht-22, 24 h
HT-22 [3] = assay: Modulation of CLK1 pre-mRNA splicing in mouse HT-22 cells assessed as inclusion of CLK1 exon 4 by measuring change in threshold cycle at 10 uM measured after 4 hrs by real time PCR analysis; assay type: cell-based; conditions: filed as modulator
[4] = biological target: Glycogen synthase kinase-3 (Sus scrofa, UniProt B2LUN4+I6LNT8); assay: Inhibition of porcine brain GSK-3alpha/beta using YRRAAVPPSPSLSRHSSPHQpSEDEEE as substrate incubated for 30 mins in presence of ATP by scintillation counting method; assay type: tissue-based
[5] = biological target: T1, Dual specificity tyrosine-phosphorylation-regulated kinase 2 (Homo sapiens, UniProt Q92630); assay: Inhibition of GST-fused human recombinant DYRK2 expressed in Escherichia coli using GRSRSRSRSRSR peptide as substrate incubated for 30 mins in presence of ATP by scintillation counting method
T1 sequence (Q92630 whole entry): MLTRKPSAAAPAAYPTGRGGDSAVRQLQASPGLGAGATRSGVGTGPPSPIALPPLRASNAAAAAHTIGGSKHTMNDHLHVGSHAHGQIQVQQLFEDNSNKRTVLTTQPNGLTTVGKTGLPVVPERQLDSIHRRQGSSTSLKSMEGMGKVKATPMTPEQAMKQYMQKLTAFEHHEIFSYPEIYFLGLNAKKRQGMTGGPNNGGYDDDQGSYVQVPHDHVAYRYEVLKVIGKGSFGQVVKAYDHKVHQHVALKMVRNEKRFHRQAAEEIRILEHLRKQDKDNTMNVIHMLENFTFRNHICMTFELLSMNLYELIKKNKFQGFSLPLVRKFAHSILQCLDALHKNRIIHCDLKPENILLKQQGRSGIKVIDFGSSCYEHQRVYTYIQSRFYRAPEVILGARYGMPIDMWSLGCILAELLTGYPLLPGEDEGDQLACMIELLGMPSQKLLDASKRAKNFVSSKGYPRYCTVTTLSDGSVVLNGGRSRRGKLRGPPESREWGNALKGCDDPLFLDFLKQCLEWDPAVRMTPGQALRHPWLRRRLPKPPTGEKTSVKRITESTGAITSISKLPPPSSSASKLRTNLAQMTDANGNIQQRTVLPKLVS

[6] = biological target: Dual specificity protein kinase CLK1 (Mus musculus, UniProt P22518); assay: Inhibition of GST-fused mouse recombinant CLK1 expressed in Escherichia coli using GRSRSRSRSRSR peptide as substrate incubated for 30 mins in presence of ATP by scintillation counting method
Sequence of Dual specificity protein kinase CLK1 (P22518 whole entry, the tested form may be a part): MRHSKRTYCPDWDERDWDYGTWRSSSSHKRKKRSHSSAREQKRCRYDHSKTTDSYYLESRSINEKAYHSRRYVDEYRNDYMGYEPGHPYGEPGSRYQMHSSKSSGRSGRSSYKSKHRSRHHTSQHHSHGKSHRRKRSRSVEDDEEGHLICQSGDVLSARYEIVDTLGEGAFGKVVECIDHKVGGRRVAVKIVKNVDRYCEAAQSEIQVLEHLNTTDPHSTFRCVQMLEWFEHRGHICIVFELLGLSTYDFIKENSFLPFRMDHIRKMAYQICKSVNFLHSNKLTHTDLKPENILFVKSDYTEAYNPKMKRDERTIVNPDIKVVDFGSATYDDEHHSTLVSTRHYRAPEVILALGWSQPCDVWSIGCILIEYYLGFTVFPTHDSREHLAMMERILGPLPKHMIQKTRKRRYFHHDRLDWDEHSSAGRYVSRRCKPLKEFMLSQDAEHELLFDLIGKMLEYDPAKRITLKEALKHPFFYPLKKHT

[7] = biological target: Dual specificity protein kinase CLK3 (Mus musculus, UniProt O35492); assay: Inhibition of GST-fused mouse recombinant CLK3 expressed in Escherichia coli using GRSRSRSRSRSR peptide as substrate incubated for 30 mins in presence of ATP by scintillation counting method
Sequence of Dual specificity protein kinase CLK3 (O35492 whole entry, the tested form may be a part): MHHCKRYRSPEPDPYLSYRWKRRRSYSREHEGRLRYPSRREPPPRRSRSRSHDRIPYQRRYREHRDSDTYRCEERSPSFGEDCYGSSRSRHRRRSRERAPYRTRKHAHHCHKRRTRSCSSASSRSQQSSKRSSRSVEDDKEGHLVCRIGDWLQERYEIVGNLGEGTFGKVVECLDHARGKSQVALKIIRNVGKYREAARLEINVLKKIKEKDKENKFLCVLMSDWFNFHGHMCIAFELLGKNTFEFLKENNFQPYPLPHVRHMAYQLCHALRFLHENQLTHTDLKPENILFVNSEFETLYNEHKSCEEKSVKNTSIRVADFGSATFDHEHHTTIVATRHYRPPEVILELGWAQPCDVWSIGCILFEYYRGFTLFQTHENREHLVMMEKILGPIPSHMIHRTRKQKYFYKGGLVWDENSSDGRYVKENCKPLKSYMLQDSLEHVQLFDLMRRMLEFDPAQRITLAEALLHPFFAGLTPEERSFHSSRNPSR

[8] = biological target: Dual specificity protein kinase CLK4 (Mus musculus, UniProt O35493); assay: Inhibition of GST-fused mouse recombinant CLK4 expressed in Escherichia coli using GRSRSRSRSRSR peptide as substrate incubated for 30 mins in presence of ATP by scintillation counting method
Sequence of Dual specificity protein kinase CLK4 (O35493 whole entry, the tested form may be a part): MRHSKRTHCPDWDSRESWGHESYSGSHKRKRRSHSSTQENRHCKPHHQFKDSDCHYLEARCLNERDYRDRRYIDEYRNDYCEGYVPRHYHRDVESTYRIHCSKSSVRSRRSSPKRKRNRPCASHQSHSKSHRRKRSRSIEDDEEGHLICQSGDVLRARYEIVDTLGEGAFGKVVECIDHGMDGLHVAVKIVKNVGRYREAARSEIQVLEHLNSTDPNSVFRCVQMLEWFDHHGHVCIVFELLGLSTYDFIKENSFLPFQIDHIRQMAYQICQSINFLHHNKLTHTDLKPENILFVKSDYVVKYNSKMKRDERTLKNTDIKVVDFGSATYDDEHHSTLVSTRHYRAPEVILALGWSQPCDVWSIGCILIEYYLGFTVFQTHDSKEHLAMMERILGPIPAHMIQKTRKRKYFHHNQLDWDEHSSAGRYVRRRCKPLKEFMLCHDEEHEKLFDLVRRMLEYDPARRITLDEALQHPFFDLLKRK

Casein kinase 2 = Casein kinase 2 (Homo sapiens, UniProt P67870+P68400+P19784+Q8NEV1); assay: Inhibition of human recombinant CK2 using RRRDDDSDDD peptide as substrate incubated for 30 mins in presence of ATP by scintillation counting method; assay type: protein assay
[9] = biological target: Serine/threonine-protein kinase pim-1 (Homo sapiens, UniProt P11309); assay: Inhibition of human recombinant Pim1 expressed in Escherichia coli using histone H1 as substrate incubated for 30 mins in presence of ATP by scintillation counting method
Sequence of Serine/threonine-protein kinase pim-1 (P11309 whole entry): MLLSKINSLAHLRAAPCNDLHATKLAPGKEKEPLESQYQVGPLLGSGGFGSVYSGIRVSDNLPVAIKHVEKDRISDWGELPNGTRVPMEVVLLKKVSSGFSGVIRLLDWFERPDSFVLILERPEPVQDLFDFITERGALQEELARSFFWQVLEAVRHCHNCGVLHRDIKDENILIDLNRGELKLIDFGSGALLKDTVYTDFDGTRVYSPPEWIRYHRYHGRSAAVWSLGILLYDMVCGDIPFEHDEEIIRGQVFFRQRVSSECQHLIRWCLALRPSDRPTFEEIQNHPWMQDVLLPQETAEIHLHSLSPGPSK

U2OS = assay: Induction of PI3K/mTor-dependent autophagy in human U2OS cells assessed as number of LC3 foci per cell at 10 uM measured after 4 hrs; assay type: cell-based; conditions: filed as activator
[10] = biological target: Dual specificity protein kinase CLK2 (Mus musculus, UniProt O35491); assay: Inhibition of mouse recombinant GST-fused CLK2 expressed in Escherichia coli using GRSRSRSRSRSR peptide as substrate incubated for 30 mins in presence of ATP by scintillation counting method
Sequence of Dual specificity protein kinase CLK2 (O35491 whole entry, the tested form may be a part): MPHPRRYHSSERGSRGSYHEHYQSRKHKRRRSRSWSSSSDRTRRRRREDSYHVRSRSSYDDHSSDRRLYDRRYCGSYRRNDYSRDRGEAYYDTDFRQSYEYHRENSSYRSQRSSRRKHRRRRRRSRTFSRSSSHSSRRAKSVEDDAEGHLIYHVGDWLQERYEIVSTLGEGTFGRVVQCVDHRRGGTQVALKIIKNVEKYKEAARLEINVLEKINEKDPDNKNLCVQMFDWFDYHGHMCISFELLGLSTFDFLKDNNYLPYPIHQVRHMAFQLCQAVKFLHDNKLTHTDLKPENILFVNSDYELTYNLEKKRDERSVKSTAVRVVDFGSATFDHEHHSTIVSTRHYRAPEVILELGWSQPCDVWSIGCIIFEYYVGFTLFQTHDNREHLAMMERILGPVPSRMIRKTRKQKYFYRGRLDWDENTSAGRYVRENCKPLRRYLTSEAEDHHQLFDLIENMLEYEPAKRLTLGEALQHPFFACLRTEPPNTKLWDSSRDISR

[11] = biological target: T2, Dual specificity tyrosine-phosphorylation-regulated kinase 3 (Homo sapiens, UniProt O43781); assay: Inhibition of GST-fused human recombinant DYRK3 expressed in Escherichia coli using GRSRSRSRSRSR peptide as substrate incubated for 30 mins in presence of ATP by scintillation counting method
T2 sequence (O43781 whole entry): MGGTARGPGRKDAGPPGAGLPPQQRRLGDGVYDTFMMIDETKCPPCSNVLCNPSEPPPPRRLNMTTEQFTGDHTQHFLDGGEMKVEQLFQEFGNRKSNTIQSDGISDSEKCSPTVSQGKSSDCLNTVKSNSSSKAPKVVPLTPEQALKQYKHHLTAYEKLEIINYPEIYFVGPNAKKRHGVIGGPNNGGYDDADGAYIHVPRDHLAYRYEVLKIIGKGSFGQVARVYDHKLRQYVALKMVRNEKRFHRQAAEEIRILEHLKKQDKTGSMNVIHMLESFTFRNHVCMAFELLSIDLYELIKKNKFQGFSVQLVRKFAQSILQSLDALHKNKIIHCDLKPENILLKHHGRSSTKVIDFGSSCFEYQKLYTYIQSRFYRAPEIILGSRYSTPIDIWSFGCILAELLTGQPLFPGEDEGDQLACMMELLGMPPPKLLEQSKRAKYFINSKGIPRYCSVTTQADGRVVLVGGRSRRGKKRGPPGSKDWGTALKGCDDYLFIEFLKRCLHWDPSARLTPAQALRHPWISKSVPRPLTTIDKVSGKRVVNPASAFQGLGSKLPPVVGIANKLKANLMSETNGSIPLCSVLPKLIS

[12] = biological target: Dual specificity tyrosine-phosphorylation-regulated kinase 1B (Homo sapiens, UniProt Q9Y463)
Sequence of Dual specificity tyrosine-phosphorylation-regulated kinase 1B (Q9Y463 whole entry): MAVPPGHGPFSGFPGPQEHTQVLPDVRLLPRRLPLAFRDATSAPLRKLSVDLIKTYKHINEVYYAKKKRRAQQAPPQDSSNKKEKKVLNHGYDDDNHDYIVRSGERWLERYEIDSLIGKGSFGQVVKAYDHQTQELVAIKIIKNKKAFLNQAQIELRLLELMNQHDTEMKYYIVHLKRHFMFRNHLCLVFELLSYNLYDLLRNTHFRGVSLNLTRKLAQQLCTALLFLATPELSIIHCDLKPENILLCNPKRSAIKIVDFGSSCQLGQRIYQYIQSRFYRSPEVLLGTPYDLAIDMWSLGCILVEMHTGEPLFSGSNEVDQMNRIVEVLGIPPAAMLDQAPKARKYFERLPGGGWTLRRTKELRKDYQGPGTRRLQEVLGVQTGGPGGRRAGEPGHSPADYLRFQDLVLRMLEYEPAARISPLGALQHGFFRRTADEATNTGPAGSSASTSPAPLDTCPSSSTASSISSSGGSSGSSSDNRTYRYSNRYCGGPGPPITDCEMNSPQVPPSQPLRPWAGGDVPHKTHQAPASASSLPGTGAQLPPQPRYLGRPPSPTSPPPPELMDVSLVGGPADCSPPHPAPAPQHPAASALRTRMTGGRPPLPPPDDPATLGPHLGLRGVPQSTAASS

HT-22 [13] = assay: Neuroprotective activity against glutamate-induced cell death in mouse HT-22 cells treated for 24 hrs by MTS assay; assay type: functional, cell-based; conditions: HT-22, 24 h

| SMILES | pIC50 [1] | Activity (Cannabinoid receptor 1) [%] | Activity [2] | deltaCT (HT-22 [3]) | IC50 [4] [nM] | pIC50 [5] | pIC50 [6] | pIC50 [7] | pIC50 [8] | IC50 (Casein kinase 2) [nM] | pIC50 [9] | Activity (U2OS) | pIC50 [10] | pIC50 [11] | pIC50 [12] | Activity (Cannabinoid receptor 1; filed as antagonist) [%] | pEC50 (HT-22 [13]) |
| --- | --- | --- | --- | --- | --- | --- | --- | --- | --- | --- | --- | --- | --- | --- | --- | --- | --- |
| O=C1NC(N2CCCCC2)=N/C1=C\c1ccc2c(c1)OCO2 | 6.89 | -58.4 | Non-Toxic | 0.68 | 2600 | 6.66 | 6.62 | 5.35 | 6.60 | 760 | 6.06 | 6.8 | 5.89 | 6.28 | 6.36 |  |  |
| Cn1cc(Cc2ccc3c(c2)OCO3)nc1N | < 5.00 | 8.9 | Non-Toxic | 0.38 |  | < 5.00 | 5.49 | < 5.00 | 5.52 |  |  | 5.3 | < 5.00 | < 5.00 |  |  |  |
| CCSC1NC(=O)/C(=C/c2ccc3c(c2)OCO3)N1C (stereo not drawn) |  | -10.7 | Non-Toxic | 0.23 |  |  |  |  |  |  |  | 6.5 |  |  |  |  |  |
| O=C1NC(N2CCOCC2)=N/C1=C\c1ccc2c(c1)OCO2 | 6.36 | -51 | Non-Toxic | 0.63 | 6500 | 6.39 | 6.37 | 5.25 | 6.54 | 1100 | 5.62 | 6.5 | 5.82 | 5.72 | 5.77 |  |  |
| CCSC1=N/C(=C\c2ccc3c(c2)OCO3)C(=O)N1C | 6.62 | -0.7 | Non-Toxic | -0.99 | 1100 | 6.47 | 6.92 | 5.68 | 6.96 | > 10000 | 5.68 | 6.8 | 6.38 | 6.52 | 6.01 |  |  |
| O=C1OC(Nc2ccccc2)=N/C1=C\c1ccc2c(c1)OCO2 |  | -37.5 | Non-Toxic | -0.18 |  |  |  |  |  |  |  | 6.2 |  |  |  |  |  |
| CSC1=N/C(=C\c2ccc3c(c2)OCO3)C(=O)N1 | 6.96 | -23 | Non-Toxic | 0.13 | 1800 | 7.10 | 7.14 | 5.62 | 7.10 | 2200 | 5.92 | 5.9 | 6.60 | 6.39 | 6.48 |  |  |
| O=C1NC(N2CCC(N3CCCCC3)CC2)=N/C1=C\c1ccc2c(c1)OCO2 | 5.96 | -51.1 | Non-Toxic | 0.42 | 6200 | 5.85 | 6.04 | < 5.00 | 5.85 | > 10000 | 5.12 | 7.1 | 5.49 | 5.28 | 5.36 |  |  |
| CCCSC1=N/C(=C\c2ccc3c(c2)OCO3)C(=O)N1C | 6.47 | 37.2 | Non-Toxic | -1.36 | 2000 | 6.48 | 7.19 | < 5.00 | 7.66 | > 10000 | 5.70 | 6.2 | 6.49 | 6.21 | 6.21 |  |  |
| COc1ccc(NC2=N/C(=C\c3ccc4c(c3)OCO4)C(=O)N2)cc1 | 6.96 |  | Non-Toxic | 0.5 | > 10000 | 6.89 | 6.85 | < 5.00 | 6.89 | > 10000 |  | 5.9 | 5.12 | 5.22 | 6.57 | 50.5 |  |
| O=C1NC(N2CCCC2)=N/C1=C\c1ccc2c(c1)OCO2 | 6.20 | -59.1 | Non-Toxic | 0.05 | 6200 | 6.03 | 6.22 | 5.49 | 6.42 | 1200 | 5.82 | 5 | 5.64 | 6.03 | 5.64 |  |  |
| CCCCCOc1ccc(NC2=N/C(=C\c3ccc4c(c3)OCO4)C(=O)N2)cc1 | 6.15 | 37.4 | Non-Toxic |  | > 10000 | 6.29 | 6.07 | < 5.00 | 6.21 | 1300 | ≤ 5.00 | 7 | 5.51 | 5.15 | 5.64 |  | 5.94 |
| O=C1NC(NC2CCNCC2)=N/C1=C\c1ccc2c(c1)OCO2 | 6.47 | -43.5 | Non-Toxic | 0.36 | 1300 | 6.60 | 6.66 | 5.28 | 6.59 | > 10000 | 5.19 | 7.4 | 6.05 | 6.04 | 6.19 |  |  |
| O=C1NC(Nc2ccc(F)cc2)=N/C1=C\c1ccc2c(c1)OCO2 | 7.55 |  | Non-Toxic |  | 8800 | 7.46 | 7.21 | < 5.00 | 7.30 | 8800 | 5.03 | 4.9 | 6.59 | 6.03 | 7.00 | 76.4 | 5.44 |
| O=C1NC(Nc2ccccc2)=N/C1=C\c1ccc2c(c1)OCCO2 | 7.12 |  | Non-Toxic |  | 2000 | 7.04 | 6.89 | 5.62 | 6.85 | 970 | 6.00 | 6.6 | 6.06 | 6.38 | 6.60 | 96.3 | 5.00 |

Source: ChEMBL document CHEMBL5126517, “Structure-Activity Relationship in the Leucettine Family of Kinase Inhibitors” (J Med Chem, 2022)
